One series has as its target T1, human EGFR (Homo sapiens, UniProt P00533).
T1 construct: purchased Reaction Biology
It is filed as biochemical.

The subject of series [1] is phosphorylated ERK1/2 (pERK) in MKN1 cells. The series is described as follows: cells. Particulars: Homo sapiens. Format: cell-based.
A further series in a line: in vivo. Particulars: CD-1, mouse, pH 5; for clearance: iv, 3 mg/kg; for AUC(0-t) / bioavailability: po, 100 mg/kg.
Series [2] can be described thus: Human liver microsome intrinsic clearance. Format: in vitro ADME. Particulars: human liver microsomes.
For series [3], the system named is pERK in MIA PaCa-2 tumors. The series is described as follows: Tumor pharmacodynamic (pERK) study in MIA PaCa-2 mouse xenograft.
The subject of series [4] is MIA PaCa-2 tumor mouse xenograft. The series can be described thus: Antitumor efficacy study in MIA PaCa-2 mouse xenograft. Particulars: single agent MRTX849, 10 mg/kg qd, 25 days.
Where [5] appears, read: MKN-1, In-Cell Western Assay measuring pERK, read-out: MKN1 Cell IC50.
Where [6] appears, read: MKN-1, read-out: MKN1 Cell IC50.
Where [7] appears, read: PO CD-1 mice, 100 mg/kg, 0.5% MC (4000 cps)/0.2% Tween80 in water.

Read-outs that look alike come from different tables or passages of the source.

T1 sequence (P00533 25-1210): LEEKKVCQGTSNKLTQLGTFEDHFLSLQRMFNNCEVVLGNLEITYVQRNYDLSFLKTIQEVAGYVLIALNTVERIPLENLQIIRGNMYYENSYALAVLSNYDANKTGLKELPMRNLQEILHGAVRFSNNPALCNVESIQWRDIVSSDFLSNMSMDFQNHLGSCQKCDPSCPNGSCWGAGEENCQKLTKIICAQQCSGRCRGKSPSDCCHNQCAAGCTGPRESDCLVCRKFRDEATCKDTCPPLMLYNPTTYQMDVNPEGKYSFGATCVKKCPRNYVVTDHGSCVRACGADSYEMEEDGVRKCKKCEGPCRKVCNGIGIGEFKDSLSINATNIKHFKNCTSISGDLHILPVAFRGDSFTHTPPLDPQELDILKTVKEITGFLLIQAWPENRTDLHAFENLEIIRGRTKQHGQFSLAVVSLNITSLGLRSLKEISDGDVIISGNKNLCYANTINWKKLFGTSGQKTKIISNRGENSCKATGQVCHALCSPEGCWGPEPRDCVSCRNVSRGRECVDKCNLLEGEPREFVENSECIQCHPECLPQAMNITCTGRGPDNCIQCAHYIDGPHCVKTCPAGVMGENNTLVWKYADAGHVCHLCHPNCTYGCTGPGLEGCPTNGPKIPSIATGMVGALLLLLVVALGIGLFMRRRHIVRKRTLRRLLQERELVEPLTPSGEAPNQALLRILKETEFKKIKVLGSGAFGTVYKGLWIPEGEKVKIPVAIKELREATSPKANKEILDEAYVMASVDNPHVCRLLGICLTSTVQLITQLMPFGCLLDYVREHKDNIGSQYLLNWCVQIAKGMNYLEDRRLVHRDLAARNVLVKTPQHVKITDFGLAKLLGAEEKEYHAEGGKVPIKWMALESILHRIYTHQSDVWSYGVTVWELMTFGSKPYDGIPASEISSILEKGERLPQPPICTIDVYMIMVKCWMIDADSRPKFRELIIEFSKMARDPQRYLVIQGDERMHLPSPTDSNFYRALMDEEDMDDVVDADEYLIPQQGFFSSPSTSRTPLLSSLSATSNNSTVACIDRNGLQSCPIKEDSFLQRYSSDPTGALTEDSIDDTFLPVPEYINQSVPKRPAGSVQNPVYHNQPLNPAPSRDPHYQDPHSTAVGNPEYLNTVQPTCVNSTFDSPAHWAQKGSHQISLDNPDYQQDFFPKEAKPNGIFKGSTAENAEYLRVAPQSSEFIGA

The IC50 is the concentration needed to halve the response being measured. As to `COc1cc2cnnc(N[C@H](C)c3ccccc3)c2cc1OC` [Compound 6], the figures for the IC50 (at human EGFR (10 μM ATP); in series [1] (setting [5])) were > 10 µM and > 10000 nM, respectively.

As to `COc1cc2cnnc(N[C@H](C)c3cccc4ccccc34)c2cc1OC` [Compound 7], the IC50 on human EGFR (10 μM ATP) was > 10 µM; in series [1] (setting [5]), > 10000 nM. Consider `COc1cc2cnnc(N[C@H](C)c3cccc(C(F)(F)F)c3)c2cc1OC` [Compound 8], for which the figures for the IC50 (at human EGFR (10 μM ATP); in series [1] (setting [6])) were > 10 µM and 958 nM, respectively. As for `COc1cc2cnnc(N[C@H](C)c3ccccc3C)c2cc1OC` [Compound 9], the results for the IC50 (on human EGFR (10 μM ATP); in series [1] (setting [5])) were > 10 µM and > 10000 nM, respectively.

For `COc1cc2cnnc(N[C@H](C)c3cccc(C(F)(F)F)c3C)c2cc1OC` [Compound 10], the IC50 on human EGFR (10 μM ATP) was > 10 µM. As to `CNCc1ccccc1-c1csc([C@@H](C)Nc2nncc3cc(OC)c(OC)cc23)c1` [Compound 11], the IC50 against human EGFR was > 10 µM. As usually defined, the clearance is a measure of how efficiently the substance is removed, as volume per time. A lower clearance goes with a low capacity for elimination. What is called AUC(0-t) is the area under the concentration-time curve up to a stated or last time point. A low value points to low exposure. A word on the bioavailability: it is dose-corrected exposure relative to a reference, in per cent. In the series “in vivo”, `Cc1c([C@@H](C)Nc2nnc(C)c3ccc(N4CCNCC4)cc23)cccc1C(F)(F)F` [Compound 15] had a clearance of 85 mL/min/kg, an AUC(0-t) of 1300 ng·h/mL and a bioavailability of 11%. As to `Cc1c([C@@H](C)Nc2nnc(C)c3ccc(C4CCNCC4)cc23)cccc1C(F)(F)F` [Compound 16], the IC50 in series [1] (setting [6]) was found to be 183 nM.

Consider `Cc1c([C@@H](C)Nc2nnc(C(F)(F)F)c3ccc(N4CCNCC4)cc23)cccc1C(F)(F)F` [Compound 18], for which the IC50 in series [1] (setting [5]) was > 10000 nM. For the molecule `COc1nnc(N[C@H](C)c2cccc(C(F)(F)F)c2C)c2cc(N3CCNCC3)ccc12` [Compound 19], the IC50 in series [1] (setting [5]) is > 10000 nM. For `Cc1c([C@@H](C)Nc2n[nH]c(=O)c3ccc(N4CCNCC4)cc23)cccc1C(F)(F)F` [Compound 21], the IC50 in series [1] (setting [6]) turned out to be 114 nM. As to `Cc1c([C@@H](C)Nc2nn(C)c(=O)c3ccc(N4CCNCC4)cc23)cccc1C(F)(F)F` [Compound 22], the IC50 in series [1] (setting [6]) worked out at 881 nM.

A word on the CLint scaled: it is the capacity of the preparation to metabolise the compound, expressed as a volume cleared per time. Low values mean greater metabolic stability, high ones faster metabolism. In the case of `Cc1c([C@@H](C)Nc2nnc(C)c3cnc(N4CCNCC4)cc23)cccc1C(F)(F)F` [Compound 23], in “in vivo”, the clearance stood at 52 mL/min/kg, the AUC(0-t) was determined as 9970 ng·h/mL and the bioavailability was 44%. Where the note is “mouse, IV 3 mg/kg”, this molecule came in with an Eh of 0.58. Moreover, the CLint scaled in series [2] is 27 mL/min/kg. As for `Cc1c([C@@H](C)Nc2nnc(C)c3cnc(N4CCOCC4)cc23)cccc1C(F)(F)F` [Compound 24], the “tumor pERK modulation, single agent” value in series [3] (24 at 100 mg/kg bid PO, 21 days, 3 h after last dose) is on record as “No modulation”. In series [3] (24 at 100 mg/kg bid in combination with MRTX849 10 mg/kg qd, PO, 21 days, 3 h after last dose), the “reduction in tumor pERK, combination” value is given as 69%. In addition, the clearance in the series “in vivo” amounted to 17 mL/min/kg. Besides, under setting [7], the “mPK PO Dosing %F” value was ~100% and the “mPK PO Dosing AUC0-last” value worked out at 130.318 µg·h/mL. The same molecule displayed an intrinsic metabolic clearance (CLint scaled) in series [2] of 114 mL/min/kg. Also, in series [1] (setting [5]), the half-inhibitory concentration (IC50) worked out at 26 nM.

As to `Cc1nnc(N[C@H](C)c2cccc(C(F)(F)F)c2F)c2cc(N3CCOCC3)ncc12` [Compound 25], the CLint scaled in series [2] turned out to be 214 mL/min/kg. In the case of `Cc1nnc(N[C@H](C)c2cccc(C(F)(F)F)n2)c2cc(N3CCOCC3)ncc12` [Compound 26], the CLint scaled in series [2] amounted to 206 mL/min/kg. Besides, in series [1] (setting [6]), the IC50 came to 185 nM.

In series [2], `Cc1nnc(N[C@H](C)c2cc(N)cc(C(F)(F)F)n2)c2cc(N3CCOCC3)ncc12` [Compound 27] registered a CLint scaled of 18 mL/min/kg.

Molecule `Cc1ncccc1[C@@H](C)Nc1nnc(C)c2cnc(N3CCOCC3)cc12` [Compound 28] registered an intrinsic clearance (CLint scaled) in series [2] of 21 mL/min/kg. Molecule `Cc1nn(C)cc1[C@@H](C)Nc1nnc(C)c2cnc(N3CCOCC3)cc12` [Compound 29] displayed an intrinsic metabolic clearance (CLint scaled) in series [2] of 15 mL/min/kg. Besides, the IC50 in series [1] (setting [6]) is 3280 nM. For the molecule `Cc1nnc(N[C@H](C)c2cn(C)nc2C(F)(F)F)c2cc(N3CCOCC3)ncc12` [Compound 30], in series [2], the CLint scaled stood at 37 mL/min/kg. Besides, the IC50 in series [1] (setting [6]) worked out at 1150 nM.

`Cc1c(Br)cccc1[C@@H](C)Nc1nnc(C)c2cnc(N3CCOCC3)cc12` [Compound 31]: the CLint scaled in series [2] came out at 396 mL/min/kg. Moreover, the IC50 in series [1] (setting [6]) was 114 nM. In series [2], `Cc1c([C@@H](C)Nc2nnc(C)c3cnc(N4CCOCC4)cc23)cccc1S(C)(=O)=O` [Compound 33] yielded a CLint scaled of 7.9 mL/min/kg.

The molecule `Cc1nnc(N[C@H](C)c2cccc(C#N)c2)c2cc(N3CCOCC3)ncc12` [Compound 34] showed a CLint scaled in series [2] of 505 mL/min/kg.

Regarding `Cc1c(C#N)cccc1[C@@H](C)Nc1nnc(C)c2cc(F)c(N3CCOCC3)cc12` [Compound 35], the IC50 in series [1] (setting [5]) was found to be 120 nM. `Cc1c(C#N)cccc1[C@@H](C)Nc1nnc(C)c2cc(Cl)c(N3CCOCC3)cc12` [Compound 36]: the IC50 in series [1] (setting [6]) stood at 286 nM.

As for `Cc1c(C#N)cccc1[C@@H](C)Nc1nnc(C)c2cc(C#N)c(N3CCOCC3)cc12` [Compound 37], the IC50 in series [1] (setting [5]) was 490 nM. Turning to `C=C(F)C(=O)N1CCN(c2nc(OC[C@@H]3CCCN3C)nc3c2CCN(c2cccc4cccc(Cl)c24)C3)C[C@@H]1CC#N` [MRTX849, adagrasib, reference compound], in series [3] (MRTX849 at 10 mg/kg qd PO, 21 days), the “tumor pERK modulation, single agent” value is “No modulation”. Further, the “plasma concentration of MRTX849” value in series [3] (MRTX849 dosed in combination with MRTX0902) was “remained unchanged”. For the same molecule, the “tumor growth inhibition (TGI)” value in series [4] was 94%.

The record behind these values is publication PMC9340770 (Journal of Medicinal Chemistry, 2022).
